According to patent US4311699A, “Aminoacid derivatives of cephalosporin compounds” (priority 1980, dated 1982):
Converted amounts (≈) assume the structure as drawn.

Experiments:
Experiment in all cases: in vitro antibacterial activity, minimal inhibitory concentration
Assay type in all cases: cell-based
E. coli Brig = settings: Escherichia coli
Source text: (§1) The compounds of the invention are new chemical compounds that are used as pharmacological agents and especially as broad spectrum antibacterial agents. They are active in vitro against strains of both gram-positive and gram-negative bacteria.
(§2) Minimal Inhibitory Concentration (μg/ml)

Prot. vulg. = tested on: Prot. vulg.
Source text: as §1, §2

Strep. fec. = tested on: Strep. fec.
Source text: as §1, §2

Serr. marces. = tested on: Serr. marces.
Source text: as §1, §2

Klebs. pneu. = tested on: Klebs. pneu.
Source text: as §1, §2

E. coli Vogel = settings: Escherichia coli
Source text: as §1, §2

Entero. cloacae = settings: Enterobacter cloacae
Source text: as §1, §2

Staph. aureus UC-76 = settings: Staphylococcus aureus, UC76; Staph. aureus UC-76, in vitro
Source text: as §1, §2

Pseudomonas UI 18 = settings: UI18; Pseudomonas UI 18, in vitro
Source text: as §1, §2

Staph. aureus S18733 = settings: Staphylococcus aureus
Source text: as §1, §2

Pseudomonas #28 = settings: Pseudomonas #28, in vitro; read-out: Minimal Inhibitory Concentration
Source text: as §1, §2

Pseudomonas BRK 12-4-4 = settings: BRK1244; Pseudomonas BRK 12-4-4, in vitro
Source text: as §1, §2

With `CC(=O)NCCCC(=O)Nc1ccc(-c2ncc(C(=O)N[C@@H](C(=O)N[C@@H]3C(=O)N4C(C(=O)O)=C(COC(C)=O)CS[C@H]34)c3ccccc3)c(O)n2)cc1` [Example 16, N-[2-[4-(N-Acetyl-γ-aminobutyrylamino)phenyl]-4-hydroxy-5-pyrimidinylcarbonyl]-7-[D-2-amino-2-phenylacetamido]-3-acetoxy-methyl-3-cephem-4-carboxylic acid] the MIC (E. coli Brig) was 50 µg/mL (≈ 67 µM), the MIC (Prot. vulg.) was 25 µg/mL (≈ 33.5 µM) and the MIC (Strep. fec.) was 25 µg/mL (≈ 33.5 µM). For the same compound, the MIC (Serr. marces.) was greater than 50 µg/mL, the MIC (Klebs. pneu.) was 12.5 µg/mL (≈ 16.8 µM) and the MIC (E. coli Vogel) was 6.3 µg/mL (≈ 8.45 µM). The MIC (Entero. cloacae) was 25 µg/mL (≈ 33.5 µM), the MIC (Staph. aureus UC-76) was 0.8 µg/mL (≈ 1.07 µM) and the MIC (Pseudomonas UI 18) was 12.5 µg/mL (≈ 16.8 µM). For the same compound, the MIC (Staph. aureus S18733) was 3.1 µg/mL (≈ 4.16 µM), the MIC (Pseudomonas #28) was 6.3 µg/mL (≈ 8.45 µM) and the MIC (Pseudomonas BRK 12-4-4) was 12.5 µg/mL (≈ 16.8 µM).

For `CC(=O)N[C@@H](C(=O)Nc1ccc(-c2ncc(C(=O)N[C@@H](C(=O)N[C@@H]3C(=O)N4C(C(=O)O)=C(COC(C)=O)CS[C@H]34)c3ccccc3)c(O)n2)cc1)C(C)C` [Example 17, N-[2-[4-(N-Acetyl-D-valylamino)phenyl]-4-hydroxy-5-pyrimidinylcarbonyl]-7-[D-2-amino-2-phenylacetamido]-3-acetoxymethyl-3-cephem-4-carboxylic acid], the MIC (E. coli Brig) was 12.5 µg/mL (≈ 16.5 µM), the MIC (Prot. vulg.) was 25 µg/mL (≈ 32.9 µM) and the MIC (Strep. fec.) was 50 µg/mL (≈ 65.8 µM). It also gave an MIC (Serr. marces.) greater than 50 µg/mL, an MIC (Klebs. pneu.) of 12.5 µg/mL (≈ 16.5 µM) and an MIC (E. coli Vogel) of 6.3 µg/mL (≈ 8.29 µM). It also gave an MIC (Entero. cloacae) of 25 µg/mL (≈ 32.9 µM), an MIC (Staph. aureus UC-76) of 1.6 µg/mL (≈ 2.11 µM) and an MIC (Pseudomonas UI 18) of 6.3 µg/mL (≈ 8.29 µM). For the same compound, the MIC (Staph. aureus S18733) was 6.3 µg/mL (≈ 8.29 µM), the MIC (Pseudomonas #28) was 6.3 µg/mL (≈ 8.29 µM) and the MIC (Pseudomonas BRK 12-4-4) was 12.5 µg/mL (≈ 16.5 µM).

In the case of `CC(=O)OCC1=C(C(=O)O)N2C(=O)[C@@H](NC(=O)[C@H](NC(=O)c3cnc(-c4ccc(NC(=O)[C@@H](C)N)cc4)nc3O)c3ccccc3)[C@H]2SC1` [Example 18, N-[2-[4-(D-Alanylamino)phenyl]-4-hydroxy-5-pyrimidinylcarbonyl]-7-[D-2-amino-2-phenylacetamido]-3-acetoxymethyl-3cephem-4-carboxylic acid], the MIC (E. coli Brig) was 50 µg/mL (≈ 72.5 µM), the MIC (Prot. vulg.) was 25 µg/mL (≈ 36.2 µM) and the MIC (Strep. fec.) was 25 µg/mL (≈ 36.2 µM). It also gave an MIC (Serr. marces.) greater than 50 µg/mL, an MIC (Klebs. pneu.) of 25 µg/mL (≈ 36.2 µM) and an MIC (E. coli Vogel) of 12.5 µg/mL (≈ 18.1 µM). It also gave an MIC (Entero. cloacae) of 50 µg/mL (≈ 72.5 µM), an MIC (Staph. aureus UC-76) of 1.6 µg/mL (≈ 2.32 µM) and an MIC (Pseudomonas UI 18) of 1.6 µg/mL (≈ 2.32 µM). The MIC (Staph. aureus S18733) was 6.3 µg/mL (≈ 9.13 µM), the MIC (Pseudomonas #28) was 3.1 µg/mL (≈ 4.49 µM) and the MIC (Pseudomonas BRK 12-4-4) was 6.3 µg/mL (≈ 9.13 µM).

With `CC(=O)N[C@H](C)C(=O)Nc1ccc(-c2ncc(C(=O)N[C@@H](C(=O)N[C@@H]3C(=O)N4C(C(=O)O)=C(COC(C)=O)CS[C@H]34)c3cccs3)c(O)n2)cc1` [Example 19, N-[2-[4-(N-Acetyl-D-alanylamino)phenyl]-4-hydroxy-5-pyrimidinylcarbonyl]-7-[D-2-amino-2-(2-thienyl)acetamido]-3-acetoxymethyl-3-cephem-4-carboxylic acid] the MIC (E. coli Brig) was greater than 50 µg/mL, the MIC (Prot. vulg.) was 25 µg/mL (≈ 33.9 µM) and the MIC (Strep. fec.) was 25 µg/mL (≈ 33.9 µM). It also gave an MIC (Serr. marces.) greater than 50 µg/mL, an MIC (Klebs. pneu.) of 12.5 µg/mL (≈ 16.9 µM) and an MIC (E. coli Vogel) of 12.5 µg/mL (≈ 16.9 µM). It also gave an MIC (Entero. cloacae) of 50 µg/mL (≈ 67.8 µM), an MIC (Staph. aureus UC-76) of 0.8 µg/mL (≈ 1.08 µM) and an MIC (Pseudomonas UI 18) of 6.3 µg/mL (≈ 8.54 µM). The MIC (Staph. aureus S18733) was 1.6 µg/mL (≈ 2.17 µM), the MIC (Pseudomonas #28) was 6.3 µg/mL (≈ 8.54 µM) and the MIC (Pseudomonas BRK 12-4-4) was 6.3 µg/mL (≈ 8.54 µM).

`CC(=O)N[C@H](C)C(=O)Nc1ccc(-c2ncc(C(=O)N[C@@H](C(=O)N[C@@H]3C(=O)N4C(C(=O)O)=C(COC(N)=O)CS[C@H]34)c3ccccc3)c(O)n2)cc1` [Example 21] showed an MIC (E. coli Brig) of 25 µg/mL (≈ 34.1 µM), an MIC (Prot. vulg.) of 12.5 µg/mL (≈ 17.1 µM) and an MIC (Strep. fec.) of 25 µg/mL (≈ 34.1 µM). The MIC (Serr. marces.) was greater than 50 µg/mL, the MIC (Klebs. pneu.) was 12.5 µg/mL (≈ 17.1 µM) and the MIC (E. coli Vogel) was 12.5 µg/mL (≈ 17.1 µM). For the same compound, the MIC (Entero. cloacae) was 25 µg/mL (≈ 34.1 µM), the MIC (Staph. aureus UC-76) was 0.8 µg/mL (≈ 1.09 µM) and the MIC (Pseudomonas UI 18) was 12.5 µg/mL (≈ 17.1 µM). It also gave an MIC (Staph. aureus S18733) of 1.6 µg/mL (≈ 2.18 µM), an MIC (Pseudomonas #28) of 3.1 µg/mL (≈ 4.23 µM) and an MIC (Pseudomonas BRK 12-4-4) of 12.5 µg/mL (≈ 17.1 µM).

`CC(=O)NCC(=O)Nc1ccc(-c2ncc(C(=O)N[C@@H](C(=O)NC3C(=O)N4C(C(=O)O)=C(CSc5nnnn5C)CSC34)c3ccccc3)c(O)n2)cc1` (stereo partly drawn) [Example 22] gave an MIC (E. coli Brig) of 6.3 µg/mL (≈ 8.14 µM), an MIC (Prot. vulg.) of 6.3 µg/mL (≈ 8.14 µM) and an MIC (Strep. fec.) of 50 µg/mL (≈ 64.6 µM). For the same compound, the MIC (Serr. marces.) was 50 µg/mL (≈ 64.6 µM), the MIC (Klebs. pneu.) was 0.8 µg/mL (≈ 1.03 µM) and the MIC (E. coli Vogel) was 0.8 µg/mL (≈ 1.03 µM). For the same compound, the MIC (Entero. cloacae) was 6.3 µg/mL (≈ 8.14 µM), the MIC (Staph. aureus UC-76) was 1.6 µg/mL (≈ 2.07 µM) and the MIC (Pseudomonas UI 18) was 12.5 µg/mL (≈ 16.2 µM). It also gave an MIC (Staph. aureus S18733) of 3.1 µg/mL (≈ 4.01 µM), an MIC (Pseudomonas #28) of 6.3 µg/mL (≈ 8.14 µM) and an MIC (Pseudomonas BRK 12-4-4) of 12.5 µg/mL (≈ 16.2 µM).
